The record followed here is US20140107025A1, “OCULAR DRUG DELIVERY SYSTEM” (priority 2012, published 2014).

Data set [1] relates to corneal epithelial defects in the eyes of New Zealand white rabbits. The experiment in a line: Rabbit corneal epithelial debridement model with healing impaired by topical dexamethasone (Example 1). It is filed as in vivo. The settings on record: for eyes with epithelial defect completely closed/healed by day 5: topical QID OU, all eyes on dexamethasone 0.1% QID, rHGH 100 μg/mL, 50 μL drop. The source says: A rabbit debridement model was used to assess the effect of topically applied rHGH on corneal epithelial defect closure in a model where epithelial closure was impaired by concomitantly administered topical steroids (Dexamethasone 0.1% QID). Standard epithelial defects were created in the eyes of nine New Zealand white rabbits by standard methods. Rabbits received topical dexamethasone QID (4×/day) to all 18 eyes. Rabbits were randomized to one of three treatment arms post surgery: a control arm of dexamethasone only QID OU (both eyes), a vehicle group of BSS (balanced salt solution) QID OU, and test article of rHGH QID OU. One drop (50 μL) of rHGH (reconstituted in Ringers Lactate to achieve a final concentration of 100 μg/mL) (n=3) was applied topically four times to both eyes. All eyes were also treated with one drop of an antibiotic solution after the surgical defect creation. Photographic assessment (twice daily) and fluorescein assessment were used to determine the speed and quality of epithelial defect closure. The corneal defect size was estimated in the photographs by obtaining the pixel count of the defect and dividing by the pixel count of the cornea. The animals were sacrificed on day 5.
The solid black bars represent percent of eyes completely healed when treated with rHGH administered topically whereas the shaded bars represent percent of eyes completely healed when treated with BSS (balanced saline solution). Over the course of this study, no eyes were completely healed when treated with dexamethasone alone.

Data set [2] has as its system corneal epithelial defects in New Zealand white rabbits. In words: Corneal epithelial impaired healing debridement model, rHGH in HYSTEM/GSSG gel (Example 3). Format: in vivo. The settings on record: topical dexamethasone 0.1% 4x/day for 7 days; normal healing 4-5 days; some rabbits not completely closed at 7 days. The source says:
A corneal epithelial impaired healing debridement model was developed by utilizing a validated epithelial debridement procedure and treating immediately postoperative with topical steroids (dexamethasone). The corneal epithelial defects were created surgically in a standardized and reproducible manner in both eyes. The normal healing for epithelial defects in normal healthy rabbits is 4-5 days. […] This model confirmed delayed epithelial wound healing in New Zealand white rabbits.
Rabbits were randomized post surgical intervention to maintain a masked study. The examiner was masked to the treatment arm.
Recombinant Human Growth Hormone (rHGH) was reconstituted and prepared as instructed, and was delivered topically to the eye via a crosslinked hyaluronic acid gel polymer HYSTEM (with glutathione GSSG) at a concentration of 4 ug/day in a 50 ul drop BID, for 7 days (see Example 2). The comparator arms are shown in Table 1: (1) the polymer HYSTEM with GSSG but without rHGH (group 1) and (2) dexamethasone alone (no polymer and no rHGH) (group 3). In vivo clinical exams were performed twice daily to determine percent corneal healing, corneal defect size, and percent of eyes (cornea) completely healed.

As for “rHGH: Recombinant human growth hormone; hydrophilic 22 Kda protein of 191 amino acids; Genotropin used in Example 2”, in data set [1] (Day 2, rHGH 100 μg/mL topical QID plus dexamethasone), the “eyes starting to heal as quickly as Day 2” value was found to be 10%. Moreover, the “speed of epithelial defect closure (photographic assessment)” value in data set [1] (comparison of treatment arms over 5 days) is given as “most rapid healing”. The “eyes with epithelial defect completely closed/healed by day 5” value in data set [1] is given as 9/9. Further, the tolerability of dosing entry in data set [1] (topical ocular dosing QID, 5 days) is listed as “tolerated the dosing well without clinical concerns”.

On to `C[C@@H]1C[C@H]2[C@@H]3CCC4=CC(=O)C=C[C@]4(C)[C@@]3(F)[C@@H](O)C[C@]2(C)[C@@]1(O)C(=O)CO` [dexamethasone, reference compound], for which the “time of healing of epithelial defects” value in data set [2] came to 7 days. The “eyes with epithelial defect completely closed/healed by day 5” value in data set [1] was 0/9.
